Laboratory results as given in patent US10597375B2, “Halogen-substituted heterocyclic compound” (UBE INDUSTRIES, LTD., priority 2012, dated 2020).

tested on: A2058 human melanoma cells; experiment: Cell migration test (LPA-induced, Chemo-Tx); assay type: cell-based; conditions: LPA 100 nM, 3 hours, read-out: IC50: concentration of the test compound which inhibits the cell migration activity of LPA by 50%
Method: The cell migration test was carried out using Chemo-Tx (registered trademark) (116-8, Neuro Probe). A2058 human melanoma cells (obtained from European Collection of Cell Culture) were cultured in a serum-free EMEM medium for 24 hours, and then re-suspended in a 0.1% BSA-containing DMEM medium to obtain a cell suspension. The test compound dissolved in DMSO in various concentration was each added to the cell suspension, and the suspension was cultured at 37° C. for 15 minutes (the final DMSO concentration of 0.5%). LPA dissolved in a 0.1% BSA-containing DMEM medium (the final concentration of 100 nM) was added to Chemo-Tx 96 well plate, and a Chemo-Tx filter which had been coated with 0.001% Fibronectin on the both surfaces was put on the plate. The suspension of cultured cells (25,000 cells) was added onto the upper surface of the filter and further cultured at 37° C. for 3 hours, and the cells on the upper surface of the filter were removed. After the filter was removed and dried, the cells which had migrated to the lower surface of the filter were stained using Diff-Quik stain (16920, Sysmex). The absorbance of the filter (570 nm) was measured and the concentration of the test compound which inhibits the cell migration activity of LPA by 50%, (1050) was determined by non-linear regression analysis using EXSAS (version 7.6.0, Arm Systex).

IC50, ≤ 200 nM:
CC(OC(=O)Nc1cc(F)sc1-c1ccc(-c2ccc(C3(C(=O)O)CC3)cc2)cc1)c1cc(F)c(F)cc1F (racemic) [I-171, (RS)-1-{4′-[5-Fluoro-3-({[1-(2,4,5-trifluorophenyl)ethoxy]carbonyl}amino)thiophen-2-yl]-[1,1′-biphenyl]-4-yl}cyclopropanecarboxylic acid]
COc1cc(-c2sc(F)cc2NC(=O)OC(C)c2cc(F)ccc2Cl)ccc1-c1ccc(C2(C(=O)O)CC2)cc1 (racemic) [I-469, (RS)-1-{4′-[3-({[1-(2-Chloro-5-fluorophenyl)ethoxy]carbonyl}amino)-5-fluorothiophen-2-yl]-2′-methoxy-[1,1′-biphenyl]-4-yl}cyclopropanecarboxylic acid]
COc1cc(-c2sc(F)cc2NC(=O)OC(C)c2ccc(F)cc2C)ccc1-c1ccc(C2(C(=O)O)CC2)cc1 (racemic) [I-477, (RS)-1-{4′-[5-Fluoro-3-({[1-(4-fluoro-2-methylphenyl)ethoxy]carbonyl}amino)thiophen-2-yl]-2′-methoxy-[1,1′-biphenyl]-4-yl}cyclopropanecarboxylic acid]
COc1cc(-c2sc(F)cc2NC(=O)OC(C)c2cc(F)ccc2C)ccc1-c1ccc(C2(C(=O)O)CC2)cc1 (racemic) [I-481, (RS)-1-{4′-[5-Fluoro-3-({[1-(5-fluoro-2-methylphenyl)ethoxy]carbonyl}amino)thiophen-2-yl]-2′-methoxy-[1,1′-biphenyl]-4-yl}cyclopropanecarboxylic acid]
CC(OC(=O)Nc1cc(Cl)sc1-c1ccc(-c2ccc(C3(C(=O)O)CC3)cc2)cc1)c1ccsc1 (racemic) [I-595, (RS)-1-{4′-[5-Chloro-3-({[1-(thiophen-3-yl)ethoxy]carbonyl}amino)thiophen-2-yl]-[1,1′-biphenyl]-4-yl}cyclopropanecarboxylic acid]
Cc1cscc1C(C)OC(=O)Nc1cc(Cl)sc1-c1ccc(-c2ccc(C3(C(=O)O)CC3)cc2)cc1 (racemic) [I-605, (RS)-1-{4′-[5-Chloro-3-({[1-(4-methylthiophen-3-yl)ethoxy]carbonyl}amino)thiophen-2-yl]-[1,1′-biphenyl]-4-yl}cyclopropanecarboxylic acid]
CC(OC(=O)Nc1cc(Cl)sc1-c1ccc(-c2ccc(C3(C(=O)O)CC3)cc2)cc1)c1ccsn1 (racemic) [I-621]
CC(OC(=O)Nc1cc(Cl)sc1-c1ccc(-c2ccc(C3(C(=O)O)CC3)cc2)cc1)c1cnsc1 (racemic) [I-625, (RS)-1-{4′-[5-Chloro-3-({[1-(isothiazol-4-yl)ethoxy]carbonyl}amino)thiophen-2-yl]-[1,1′-biphenyl]-4-yl}cyclopropanecarboxylic acid]
COc1cc(-c2sc(Cl)cc2NC(=O)OC(C)c2ccsc2)ccc1-c1ccc(C2(C(=O)O)CC2)cc1 (racemic) [I-779, (RS)-1-{4′-[5-Chloro-3-({[1-(thiophen-3-yl)ethoxy]carbonyl}amino)thiophen-2-yl]-2′-methoxy-[1,1′-biphenyl]-4-yl}cyclopropanecarboxylic acid]
COc1cc(-c2sc(Cl)cc2NC(=O)OC(C)c2cscc2C)ccc1-c1ccc(C2(C(=O)O)CC2)cc1 (racemic) [I-783, (RS)-1-{4′-[5-Chloro-3-({[1-(4-methylthiophen-3-yl)ethoxy]carbonyl}amino)thiophen-2-yl]-2′-methoxy-[1,1′-biphenyl]-4-yl}cyclopropanecarboxylic acid]
COc1cc(-c2sc(Cl)cc2NC(=O)OC(C)c2cscc2Cl)ccc1-c1ccc(C2(C(=O)O)CC2)cc1 (racemic) [I-791, (RS)-1-{4′-[5-Chloro-3-({[1-(4-chlorothiophen-3-yl)ethoxy]carbonyl}amino)thiophen-2-yl]-2′-methoxy-[1,1′-biphenyl]-4-yl}cyclopropanecarboxylic acid]
COc1cc(-c2sc(F)cc2NC(=O)OC(C)c2cscc2C)ccc1-c1ccc(C2(C(=O)O)CC2)cc1 (racemic) [I-815, (RS)-1-{4′-[5-Fluoro-3-({[1-(4-methylthiophen-3-yl)ethoxy]carbonyl}amino)thiophen-2-yl]-2′-methoxy-[1,1′-biphenyl]-4-yl}cyclopropanecarboxylic acid]
COc1cc(-c2sc(F)cc2NC(=O)OC(C)c2cscc2Cl)ccc1-c1ccc(C2(C(=O)O)CC2)cc1 (racemic) [I-823, (RS)-1-{4′-[3-({[1-(4-Chlorothiophen-3-yl)ethoxy]carbonyl}amino)-5-fluorothiophen-2-yl]-2′-methoxy-[1,1′-biphenyl]-4-yl}cyclopropanecarboxylic acid]
C[C@@H](OC(=O)Nc1cc(Cl)sc1-c1ccc(-c2ccc(C3(C(=O)O)CC3)cc2)cc1)c1ccc(F)c(F)c1 [I-72, (R)-1-{4′-[5-Chloro-3-({[1-(3,4-difluorophenyl)ethoxy]carbonyl}amino)thiophen-2-yl]-[1,1′-biphenyl]-4-yl}cyclopropanecarboxylic acid]
C[C@@H](OC(=O)Nc1cc(F)sc1-c1ccc(-c2ccc(C3(C(=O)O)CC3)cc2)cc1)c1ccc(F)c(F)c1 [I-148, (R)-1-{4′-[3-({[1-(3,4-Difluorophenyl)ethoxy]carbonyl}amino)-5-fluorothiophen-2-yl]-[1,1′-biphenyl]-4-yl}cyclopropanecarboxylic acid]
COc1cc(-c2sc(Cl)cc2NC(=O)O[C@H](C)c2ccc(F)cc2Cl)ccc1-c1ccc(C2(C(=O)O)CC2)cc1 [I-396, (R)-1-{4′-[5-Chloro-3-({[1-(2-chloro-4-fluorophenyl)ethoxy]carbonyl}amino)thiophen-2-yl]-2′-methoxy-[1,1′-biphenyl]-4-yl}cyclopropanecarboxylic acid]
COc1cc(-c2sc(F)cc2NC(=O)O[C@H](C)c2ccc(Cl)cc2)ccc1-c1ccc(C2(C(=O)O)CC2)cc1 [I-446, (R)-1-{4′-[3-({[1-(4-Chlorophenyl)ethoxy]carbonyl}amino)-5-fluorothiophen-2-yl]-2′-methoxy-[1,1′-biphenyl]-4-yl}cyclopropanecarboxylic acid]
COc1cc(-c2sc(F)cc2NC(=O)O[C@H](C)c2ccc(F)cc2F)ccc1-c1ccc(C2(C(=O)O)CC2)cc1 [I-454, (R)-1-{4′-[3-({[1-(2,4-Difluorophenyl)ethoxy]carbonyl}amino)-5-fluorothiophen-2-yl]-2′-methoxy-[1,1′-biphenyl]-4-yl}cyclopropanecarboxylic acid]
COc1cc(-c2sc(F)cc2NC(=O)O[C@H](C)c2ccc(F)cc2Cl)ccc1-c1ccc(C2(C(=O)O)CC2)cc1 [I-466, (R)-1-{4′-[3-({[1-(2-Chloro-4-fluorophenyl)ethoxy]carbonyl}amino)-5-fluorothiophen-2-yl]-2′-methoxy-[1,1′-biphenyl]-4-yl}cyclopropanecarboxylic acid]
C[C@@H](OC(=O)Nc1cc(Cl)sc1-c1ccc(-c2ccc(C3(C(=O)O)CC3)cc2)c([N+](=O)[O-])c1)c1ccccc1 [I-490, (R)-1-[4′-(5-Chloro-3-{[(1-phenylethoxy)carbonyl]amino}thiophen-2-yl)-2′-nitro-[1,1′-biphenyl]-4-yl]cyclopropanecarboxylic acid]
C[C@@H](OC(=O)Nc1cc(Cl)sc1-c1ccc(-c2ccc(C3(C(=O)O)CC3)cc2)c([N+](=O)[O-])c1)c1ccc(F)cc1 [I-498, (R)-1-{4′-[5-Chloro-3-({[1-(4-fluorophenyl)ethoxy]carbonyl}amino)thiophen-2-yl]-2′-nitro-[1,1′-biphenyl]-4-yl}cyclopropanecarboxylic acid]
C[C@@H](OC(=O)Nc1cc(Cl)sc1-c1ccc(-c2ccc(C3(C(=O)O)CC3)cc2)c([N+](=O)[O-])c1)c1ccccc1Cl [I-502, (R)-1-{4′-[5-Chloro-3-({[1-(2-chlorophenyl)ethoxy]carbonyl}amino)thiophen-2-yl]-2′-nitro-[1,1′-biphenyl]-4-yl}cyclopropanecarboxylic acid]
C[C@@H](OC(=O)Nc1cc(Cl)sc1-c1ccc(-c2ccc(C3(C(=O)O)CC3)cc2)c(N)c1)c1ccccc1 [I-534]
C[C@@H](OC(=O)Nc1cc(Cl)sc1-c1ccc(-c2ccc(C3(C(=O)O)CC3)cc2)cc1)c1cccs1 [I-630, (R)-1-{4′-[5-Chloro-3-({[1-(thiophen-2-yl)ethoxy]carbonyl}amino)thiophen-2-yl]-[1,1′-biphenyl]-4-yl}cyclopropanecarboxylic acid]
C[C@@H](OC(=O)Nc1cc(F)sc1-c1ccc(-c2ccc(C3(C(=O)O)CC3)cc2)cc1)c1cccs1 [I-674, (R)-1-{4′-[5-Fluoro-3-({[1-(thiophen-2-yl)ethoxy]carbonyl}amino)thiophen-2-yl]-[1,1′-biphenyl]-4-yl}cyclopropanecarboxylic acid]
